The target in one assay is T1, IKZF2 (Homo sapiens, UniProt Q96SW2+Q9UKS7).
T1 construct: effects of the compounds of the present disclosure on the expression of target proteins in cells; endogenous in cells; host or cells: human PBMCs (Milecell Biotechnologies)
The assay is described as follows: Western blot, degradation of substrate protein in hPBMCs. The assay is classed as cell-based. The conditions noted are these: Western blot, 24 hours of compound treatment, compounds tested at 50 nM and 500 nM (concentration for the table not stated).

The target of a further assay is T2, WEE1 (Homo sapiens, UniProt P30291+Q96SW2).
T2 construct: effects of the compounds of the present disclosure on the expression of target proteins in cells; endogenous in cells; host or cells: human PBMCs (Milecell Biotechnologies)
Described as above. The settings on record: Western blot, 24 hours of compound treatment, compounds tested at 50 nM and 500 nM (concentration for the table not stated). The assay is classed as cell-based.

A further assay has as its target T3, CK1α (Homo sapiens, UniProt P48729+Q96SW2).
T3 construct: effects of the compounds of the present disclosure on the expression of target proteins in cells; endogenous in cells; host or cells: human PBMCs (Milecell Biotechnologies)
The assay is described as above. The settings on record: Western blot, 24 hours of compound treatment, compounds tested at 50 nM and 500 nM (concentration for the table not stated). Type of assay: cell-based.

The target of a further assay is T4, IKZF3 (Homo sapiens, UniProt Q96SW2+Q9UKT9).
T4 construct: effects of the compounds of the present disclosure on the expression of target proteins in cells; endogenous in cells; host or cells: human PBMCs (Milecell Biotechnologies)
The assay is described as above. The assay is classed as cell-based. The settings on record: Western blot, 24 hours of compound treatment, compounds tested at 50 nM and 500 nM (concentration for the table not stated).

Another assay deals with T5, IKZF1 (Homo sapiens, UniProt Q13422+Q96SW2).
T5 construct: effects of the compounds of the present disclosure on the expression of target proteins in cells; endogenous in cells; host or cells: human PBMCs (Milecell Biotechnologies)
The description is as above. Type of assay: cell-based. The conditions noted are these: Western blot, 24 hours of compound treatment, compounds tested at 50 nM and 500 nM (concentration for the table not stated).

For a further assay, the system named is GSPT1. The description is as above. Type of assay: cell-based, Human. The settings on record: Western blot, 24 hours of compound treatment, compounds tested at 50 nM and 500 nM (concentration for the table not stated).
The target in assay [1] is T6, human Cereblon WT GST-tagged protein (Homo sapiens, UniProt Q96SW2).
T6 construct: purchased CISBIO 64BDCRBNPEH
The assay is described as follows: CRBN-binding affinity, HTRF (CEREBLON BINDING kit). The conditions noted are these: for inhibition at 0.5 µM: read-out: Inhibition Rate at 0.5 µM (%); for inhibition at 2 µM: read-out: Inhibition Rate at 2 µM (%).

T6 sequence (Q96SW2 whole entry): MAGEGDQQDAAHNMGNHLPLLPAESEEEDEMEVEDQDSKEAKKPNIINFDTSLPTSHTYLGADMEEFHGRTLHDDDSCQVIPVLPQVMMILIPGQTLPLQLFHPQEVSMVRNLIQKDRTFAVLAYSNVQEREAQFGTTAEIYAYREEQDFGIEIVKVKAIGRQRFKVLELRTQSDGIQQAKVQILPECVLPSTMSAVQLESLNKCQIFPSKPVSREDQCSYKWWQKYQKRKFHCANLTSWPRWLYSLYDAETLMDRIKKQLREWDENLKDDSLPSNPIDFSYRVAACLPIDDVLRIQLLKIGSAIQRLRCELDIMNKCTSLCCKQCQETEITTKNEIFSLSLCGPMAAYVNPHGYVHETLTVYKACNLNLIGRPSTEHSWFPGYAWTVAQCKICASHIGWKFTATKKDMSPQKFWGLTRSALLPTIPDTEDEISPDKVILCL
T4 sequence (Q9UKT9 whole entry): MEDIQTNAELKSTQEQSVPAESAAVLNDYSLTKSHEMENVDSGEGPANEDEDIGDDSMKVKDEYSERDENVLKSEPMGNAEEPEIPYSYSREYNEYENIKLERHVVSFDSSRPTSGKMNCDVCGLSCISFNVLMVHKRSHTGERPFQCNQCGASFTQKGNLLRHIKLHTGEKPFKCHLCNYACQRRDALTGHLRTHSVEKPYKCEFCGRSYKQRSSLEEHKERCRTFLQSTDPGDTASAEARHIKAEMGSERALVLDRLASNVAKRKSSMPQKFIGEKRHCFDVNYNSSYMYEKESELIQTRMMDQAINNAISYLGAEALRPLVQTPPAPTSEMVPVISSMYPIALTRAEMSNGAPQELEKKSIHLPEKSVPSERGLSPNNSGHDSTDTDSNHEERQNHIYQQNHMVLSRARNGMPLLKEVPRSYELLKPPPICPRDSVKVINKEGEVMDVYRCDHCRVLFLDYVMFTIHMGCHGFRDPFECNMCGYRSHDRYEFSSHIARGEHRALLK
T4 sequence (Q96SW2 whole entry): as the sequence (Q96SW2 whole entry) above
T4 sequence (Q16531 whole entry partner): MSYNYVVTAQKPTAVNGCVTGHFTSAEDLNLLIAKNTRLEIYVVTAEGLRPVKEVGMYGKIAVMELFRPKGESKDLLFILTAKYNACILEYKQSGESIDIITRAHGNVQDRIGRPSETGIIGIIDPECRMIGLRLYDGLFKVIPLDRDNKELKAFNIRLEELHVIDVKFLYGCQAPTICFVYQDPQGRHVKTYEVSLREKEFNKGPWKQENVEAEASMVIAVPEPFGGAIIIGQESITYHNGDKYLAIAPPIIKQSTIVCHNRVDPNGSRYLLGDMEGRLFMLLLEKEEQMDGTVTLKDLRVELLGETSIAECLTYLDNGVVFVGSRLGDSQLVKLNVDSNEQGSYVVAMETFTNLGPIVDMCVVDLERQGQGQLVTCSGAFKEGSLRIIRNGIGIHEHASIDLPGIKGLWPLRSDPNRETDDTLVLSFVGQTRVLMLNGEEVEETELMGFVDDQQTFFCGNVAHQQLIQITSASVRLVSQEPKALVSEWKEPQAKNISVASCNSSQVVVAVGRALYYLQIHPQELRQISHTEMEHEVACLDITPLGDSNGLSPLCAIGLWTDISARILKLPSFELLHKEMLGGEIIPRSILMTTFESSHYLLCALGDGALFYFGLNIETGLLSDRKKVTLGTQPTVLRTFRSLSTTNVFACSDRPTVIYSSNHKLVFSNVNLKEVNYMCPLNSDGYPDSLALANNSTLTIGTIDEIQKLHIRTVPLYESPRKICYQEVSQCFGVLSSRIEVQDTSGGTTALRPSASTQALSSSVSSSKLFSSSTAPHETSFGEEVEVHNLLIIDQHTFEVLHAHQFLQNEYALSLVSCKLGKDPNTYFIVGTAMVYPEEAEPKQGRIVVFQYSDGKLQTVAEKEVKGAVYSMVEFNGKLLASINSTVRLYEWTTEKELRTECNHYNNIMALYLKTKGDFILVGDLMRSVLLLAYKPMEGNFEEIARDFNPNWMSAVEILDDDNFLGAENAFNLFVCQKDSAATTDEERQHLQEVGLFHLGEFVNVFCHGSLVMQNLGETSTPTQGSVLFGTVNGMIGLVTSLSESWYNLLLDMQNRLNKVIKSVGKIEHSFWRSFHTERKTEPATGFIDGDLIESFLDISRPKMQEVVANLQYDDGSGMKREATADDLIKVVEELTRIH
T3 sequence (P48729 whole entry): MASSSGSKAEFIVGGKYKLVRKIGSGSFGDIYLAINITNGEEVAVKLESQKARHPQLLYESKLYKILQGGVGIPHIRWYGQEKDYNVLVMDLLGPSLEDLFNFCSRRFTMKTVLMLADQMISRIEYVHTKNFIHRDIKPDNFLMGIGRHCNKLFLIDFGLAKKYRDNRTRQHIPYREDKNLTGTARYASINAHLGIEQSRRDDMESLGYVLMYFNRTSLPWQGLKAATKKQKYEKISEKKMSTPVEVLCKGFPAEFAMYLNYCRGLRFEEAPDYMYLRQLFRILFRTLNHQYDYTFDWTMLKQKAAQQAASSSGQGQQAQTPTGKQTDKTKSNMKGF
T3 sequence (Q96SW2 whole entry): as the sequence (Q96SW2 whole entry) above
T3 sequence (Q16531 whole entry partner): as the sequence (Q16531 whole entry partner) above
T5 sequence (Q13422 whole entry): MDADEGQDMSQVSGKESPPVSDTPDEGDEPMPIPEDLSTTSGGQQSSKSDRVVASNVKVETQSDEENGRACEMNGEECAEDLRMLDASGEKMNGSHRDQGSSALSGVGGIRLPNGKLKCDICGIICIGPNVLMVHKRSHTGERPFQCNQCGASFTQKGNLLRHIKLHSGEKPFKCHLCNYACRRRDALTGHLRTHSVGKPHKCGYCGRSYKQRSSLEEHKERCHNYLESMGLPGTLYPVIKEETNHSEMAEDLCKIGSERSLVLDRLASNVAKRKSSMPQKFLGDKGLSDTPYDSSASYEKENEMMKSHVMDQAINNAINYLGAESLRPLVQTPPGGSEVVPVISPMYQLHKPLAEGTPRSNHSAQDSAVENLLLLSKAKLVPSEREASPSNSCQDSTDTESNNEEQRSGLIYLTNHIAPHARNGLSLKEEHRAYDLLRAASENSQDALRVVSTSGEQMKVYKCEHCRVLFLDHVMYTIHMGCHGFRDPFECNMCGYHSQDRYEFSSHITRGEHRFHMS
T5 sequence (Q96SW2 whole entry): as the sequence (Q96SW2 whole entry) above
T5 sequence (Q16531 whole entry partner): as the sequence (Q16531 whole entry partner) above
T1 sequence (Q9UKS7 whole entry): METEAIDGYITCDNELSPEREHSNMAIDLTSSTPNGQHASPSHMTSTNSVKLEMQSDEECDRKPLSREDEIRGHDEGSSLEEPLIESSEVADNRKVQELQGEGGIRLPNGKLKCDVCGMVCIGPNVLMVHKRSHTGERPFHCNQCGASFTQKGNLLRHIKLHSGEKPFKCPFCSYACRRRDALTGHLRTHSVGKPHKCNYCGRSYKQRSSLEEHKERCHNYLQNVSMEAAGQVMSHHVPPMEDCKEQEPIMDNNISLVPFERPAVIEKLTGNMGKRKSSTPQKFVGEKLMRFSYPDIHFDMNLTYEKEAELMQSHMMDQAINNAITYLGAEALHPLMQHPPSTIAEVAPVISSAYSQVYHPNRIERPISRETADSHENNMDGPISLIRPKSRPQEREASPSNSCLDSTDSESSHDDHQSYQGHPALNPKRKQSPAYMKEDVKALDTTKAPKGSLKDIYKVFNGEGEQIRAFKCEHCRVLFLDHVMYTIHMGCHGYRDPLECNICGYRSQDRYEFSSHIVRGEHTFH
T1 sequence (Q96SW2 whole entry): as the sequence (Q96SW2 whole entry) above
T1 sequence (Q16531 whole entry partner): as the sequence (Q16531 whole entry partner) above
T2 sequence (P30291 whole entry): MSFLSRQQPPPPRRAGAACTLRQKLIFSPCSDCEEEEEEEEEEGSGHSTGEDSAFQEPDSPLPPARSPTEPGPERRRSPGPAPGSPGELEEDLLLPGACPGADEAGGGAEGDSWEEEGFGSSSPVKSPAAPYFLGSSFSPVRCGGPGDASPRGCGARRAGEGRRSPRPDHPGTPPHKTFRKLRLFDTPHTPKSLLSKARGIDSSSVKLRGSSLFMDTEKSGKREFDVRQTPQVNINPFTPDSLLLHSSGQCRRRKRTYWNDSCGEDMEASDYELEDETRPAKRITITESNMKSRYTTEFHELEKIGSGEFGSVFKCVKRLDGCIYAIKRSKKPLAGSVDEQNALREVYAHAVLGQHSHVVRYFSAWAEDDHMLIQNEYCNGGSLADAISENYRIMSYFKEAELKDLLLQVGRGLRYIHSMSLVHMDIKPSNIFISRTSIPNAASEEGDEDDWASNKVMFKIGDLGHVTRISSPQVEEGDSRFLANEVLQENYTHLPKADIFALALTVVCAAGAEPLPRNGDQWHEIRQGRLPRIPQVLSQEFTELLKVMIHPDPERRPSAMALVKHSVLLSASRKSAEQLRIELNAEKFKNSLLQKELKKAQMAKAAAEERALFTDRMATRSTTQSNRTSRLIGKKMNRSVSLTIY
T2 sequence (Q96SW2 whole entry): as the sequence (Q96SW2 whole entry) above
T2 sequence (Q16531 whole entry partner): as the sequence (Q16531 whole entry partner) above

As to `O=C1CCC(N2Cc3c(CN4CCN(c5cc(F)cc(F)c5)CC4)cccc3C2=S)C(=O)N1` (centres unmarked) [GT-08632, 3-(4-((4-(3,5-difluorophenyl)piperazin-1-yl)methyl)-1-thioxoisoindolin-2-yl)piperidine-2,6-dione], the “IKZF2 substrate protein remaining %” value at IKZF2 was “B (80%< substrate protein remaining %≤ 100%)”. For the same molecule, the “Wee1 substrate protein remaining %” value on WEE1 is reported as “A (0% ≤ substrate protein remaining % ≤ 80%)”. The “CK1α substrate protein remaining %” value on CK1α is “B (80%< substrate protein remaining %≤ 100%)”. For the same molecule, the “IKZF3 substrate protein remaining %” value at IKZF3 is given as “B (80%< substrate protein remaining %≤ 100%)”. In addition, the “IKZF 1 substrate protein remaining %” value at IKZF1 was “B (80%< substrate protein remaining %≤ 100%)”. Besides, in the assay with GSPT1, the “GSPT1 substrate protein remaining %” value is listed as “B (80%< substrate protein remaining %≤ 100%)”. In addition, in assay [1], the inhibition at 0.5 µM lay within 60 to 80% and the inhibition at 2 µM lay within 80 to 100%.
For `O=C1CCC(N2Cc3c(CN4CC=C(c5cccc6cnccc56)CC4)cccc3C2=S)C(=O)N1` (centres unmarked) [GT-08634, 3-(4-((4-(isoquinolin-5-yl)-3,6-dihydropyridin-1(2H)-yl)methyl)-1-thioxoisoindolin-2-yl)piperidine-2,6-dione], the “IKZF2 substrate protein remaining %” value at IKZF2 is listed as “B (80%< substrate protein remaining %≤ 100%)”. Also, the “Wee1 substrate protein remaining %” value at WEE1 is reported as “A (0% ≤ substrate protein remaining % ≤ 80%)”. In addition, the “CK1α substrate protein remaining %” value on CK1α is on record as “B (80%< substrate protein remaining %≤ 100%)”. Also, the “IKZF3 substrate protein remaining %” value at IKZF3 was “B (80%< substrate protein remaining %≤ 100%)”. For the same molecule, the “IKZF 1 substrate protein remaining %” value on IKZF1 is “B (80%< substrate protein remaining %≤ 100%)”. In addition, the “GSPT1 substrate protein remaining %” value with GSPT1 is “B (80%< substrate protein remaining %≤ 100%)”. Further, in assay [1], the inhibition at 0.5 µM lay within 60 to 80% and the inhibition at 2 µM is 80 to 100%.
Take `O=C1CCC(N2Cc3c(CN4CC(N5CCc6cc(F)ccc65)C4)cccc3C2=S)C(=O)N1` (centres unmarked) [GT-08635, 3-(4-((3-(5-fluoroindolin-1-yl)azetidin-1-yl)methyl)-1-thioxoisoindolin-2-yl)piperidine-2,6-dione]: on IKZF2, the “IKZF2 substrate protein remaining %” value is given as “B (80%< substrate protein remaining %≤ 100%)”. Besides, on WEE1, the “Wee1 substrate protein remaining %” value is “A (0% ≤ substrate protein remaining % ≤ 80%)”. The “CK1α substrate protein remaining %” value at CK1α is given as “B (80%< substrate protein remaining %≤ 100%)”. The “IKZF3 substrate protein remaining %” value on IKZF3 is reported as “B (80%< substrate protein remaining %≤ 100%)”. In addition, the “IKZF 1 substrate protein remaining %” value at IKZF1 is given as “B (80%< substrate protein remaining %≤ 100%)”. Moreover, in the assay with GSPT1, the “GSPT1 substrate protein remaining %” value was “B (80%< substrate protein remaining %≤ 100%)”. Moreover, in assay [1], the inhibition at 0.5 µM is 80 to 100% and the inhibition at 2 µM fell in the range of 80 to 100%.
Turning to `O=C1CCC(N2Cc3c(CN4CCN(c5ccccn5)CC4)cccc3C2=S)C(=O)N1` (centres unmarked) [GT-08691, 3-(4-((4-(pyridin-2-yl)piperazin-1-yl)methyl)-1-thioxoisoindolin-2-yl)piperidine-2,6-dione], on IKZF2, the “IKZF2 substrate protein remaining %” value is “B (80%< substrate protein remaining %≤ 100%)”. In addition, the “Wee1 substrate protein remaining %” value at WEE1 was “A (0% ≤ substrate protein remaining % ≤ 80%)”. Besides, on CK1α, the “CK1α substrate protein remaining %” value is “B (80%< substrate protein remaining %≤ 100%)”. Besides, the “IKZF3 substrate protein remaining %” value on IKZF3 is “B (80%< substrate protein remaining %≤ 100%)”. Further, the “IKZF 1 substrate protein remaining %” value at IKZF1 is “B (80%< substrate protein remaining %≤ 100%)”. Besides, in the assay on GSPT1, the “GSPT1 substrate protein remaining %” value is listed as “B (80%< substrate protein remaining %≤ 100%)”. Further, in assay [1], the inhibition at 0.5 µM fell in the range of 60 to 80% and the inhibition at 2 µM is 80 to 100%.

The values above are taken from patent publication EP4745135A1 (Gluetacs Therapeutics (Shanghai) Co., Ltd., priority 2023, dated 2025).
